Laboratory results as given in patent publication US20030005484A1, “Microbiocidal and pesticidal aromatic aldehydes” (ProGuard, Inc., priority 1994, published 2003).
Where “and” joins values, the source holds several entries; their conditions need not be identical. Equal values may be shown once.

Experiments:
rust = rust (and spores) on roses, disease rating / MPDC after foliar spray; type: in vivo, Phragmidrium mucronatrum
Experimental: Each formulation is evaluated for its effect on specific pests and/or plant host using any of the compounds of formula (1) as well as other components of the formulation such as Tween 80 and/or sodium bicarbonate, with the combination and effective amount of each component adapted for a particular application to minimize toxicity while maintaining or increasing the antipathogenic effect of the formulation. The effective amount of each component may be determined by systematically varying the amount of that component in a test formulation, treating a plant of interest with the test formulation, and monitoring the level of pest infestation compared to an untreated control plant. An effective amount of a test component is identified as the amount that controls the growth of the pathogen on the plant host, thus reducing the disease rating of the plant. The mean percentage disease […] (MPDC) can be calculated for each particular application. MPDC is defined by the formula: [formula] Eight cultivars of rose were tested to investigate the effect of a cinnamic aldehyde/NaHCO3 formulation on rust and spores. The cultivars used included Moss unnamed (Moss), […], Rosette Delize (Hybrid Tea), Rosa Rugosa Rubra (Rugosa), Abel Morrison (Hybrid perpetual), John Laing, Betty Prior, and Rose de Roi. […] The Hybrid Tea and Hybrid perpetual were rated 3 and the Rugosa was rated 1. […] Control plants received no treatment. […] Moreover, the treatment appeared to have induced systemic resistance. […] Plants were an average of 0.86 m apart. […] Controls were untreated plants. […] Weekly reviews were made of the various plants. […] Six cultivars of infected rose in dedicated experimental rose gardens were used. Four Mrs. John Laing (Hybrid perpetual) and two Marchionese of Londonderry (Hybrid perpetual) rose plants were treated with one of two formulations of coniferyl aldehyde. […] The first two Mrs. […] Mrs. […] Both Marchionese of Londonderry plants (P5 and P6) were rated 5 for powdery mildew and rust after Paulus and Nelson (supra). Two treatment formulae were used for this trial. […] Control plants were sprayed with water alone. The change in the rating from pre-treatment to post-treatment was calculated as the mean percentage of disease control (MPDC) as described herein.

Stubby Root nematode = assay: vineyard grape vines, nematode infestation: stubby root; type: in vivo
Experimental: (§1) The subject formulations were tested for ability to reduce grape vine infestation by root knot, ring, stubby root, and roll lesion nematodes. Grape vines (Harmony rootstock) in a vinyard were treated with 1000 ppm or 3000 ppm cinnamaldehyde in 2% Tween 80, the commercial anti-nematode agent Nemacur, or a formulation blank. The extent of nematode infestation was determined at the time of treatment and at 30 and 60 days post-treatment.

Ring Nematode = assay: vineyard grape vines, nematode infestation: ring; type: in vivo
Experimental: as §1

Root Knot Nematode = assay: vineyard grape vines, nematode infestation: root knot; type: in vivo
Experimental: as §1

phylloxera Biotype A [1] = assay: planter / field box vines, leaf spray, phylloxera population on roots; type: in vivo, Daktulosphaira vitifoliae; conditions: for Number of phylloxera per root piece: Merlot, two weeks; for reduction of population versus control vines: field planter boxes, after two weeks; for phylloxera population, Mean ± 95% CI: boxed 1 year old Merlot
From the text: Planter boxes are wooden boxes with a top surface area of 1.5 m×1 m and are 1.5 m tall. They were filled with a clay-loam soil and each was planted to 4 one-year old Merlot plants in early spring, 1995. They were infested with biotype A phylloxera in May, 1995 by placing about 150 eggs adjacent to an attached root under the soil surface. The plants were irrigated weekly with a fine mist. Treatments were made at various times in July and August 1995 using the household 1 liter-capacity plastic spray bottles, spraying to runoff. At one or two weeks after treatment, plants root systems were removed from the soil and total phylloxera populations were estimated.

phylloxera Biotype A [2] = assay: as above; type: in vivo, Daktulosphaira vitifoliae; conditions: Chardonnay (2 treatments), two weeks
[3] = potted roses, ~100 ml foliar spray of 5 g cinnamic aldehyde, 80 g NaHCO3, 10 g Tween 80 per 1000 g, weekly saponin, observed 8 weeks
[4] = 1000 ppm in 2% Tween 80, 30 days post-treatment
[5] = 1000 ppm in 2% Tween 80, 60 days post-treatment
[6] = 1000 ppm in 2% Tween 80, day 0 (time of treatment)
[7] = 3000 ppm in 2% Tween 80, 30 days post-treatment
[8] = 3000 ppm in 2% Tween 80, 60 days post-treatment
[9] = 3000 ppm in 2% Tween 80, day 0 (time of treatment)

SMILES: O=C/C=C/c1ccccc1 [cinnamic aldehyde]
- Mean Percentage of Disease Control (MPDC), rust (rust; field rose Rose de Roi, same single spray, five week trial): 85.0%
- rust after a single treatment (rust; [3]): eradicative
- spores after a single treatment (rust; [3]): eradicative
- Stubby Root, nematodes per 250 cc soil (Stubby Root nematode; [4]): 45 per 250 cc soil
- Stubby Root, nematodes per 250 cc soil (Stubby Root nematode; [5]): 36.2 per 250 cc soil
- Stubby Root, nematodes per 250 cc soil (Stubby Root nematode; [6]): 13.8 per 250 cc soil
- Stubby Root, nematodes per 250 cc soil (Stubby Root nematode; [7]): 8.8 per 250 cc soil
- Stubby Root, nematodes per 250 cc soil (Stubby Root nematode; [8]): 43.5 per 250 cc soil
- Stubby Root, nematodes per 250 cc soil (Stubby Root nematode; [9]): 0.8 per 250 cc soil
- Ring Nematode, nematodes per 250 cc soil (Ring Nematode; [4]): 171.2 per 250 cc soil
- Ring Nematode, nematodes per 250 cc soil (Ring Nematode; [5]): 1168 per 250 cc soil
- Ring Nematode, nematodes per 250 cc soil (Ring Nematode; [6]): 47.2 per 250 cc soil
- Ring Nematode, nematodes per 250 cc soil (Ring Nematode; [7]): 322.8 per 250 cc soil
- Ring Nematode, nematodes per 250 cc soil (Ring Nematode; [8]): 1127 per 250 cc soil
- Ring Nematode, nematodes per 250 cc soil (Ring Nematode; [9]): 540.2 per 250 cc soil
- Root Knot Nematode, nematodes per 250 cc soil (Root Knot Nematode; [4]): 872 per 250 cc soil
- Root Knot, nematodes per gram root (Root Knot Nematode; [4]): 55.2 per gram root
- Root Knot Nematode, nematodes per 250 cc soil (Root Knot Nematode; [5]): 204.5 per 250 cc soil
- Root Knot, nematodes per gram root (Root Knot Nematode; [5]): 11.8 per gram root
- Root Knot Nematode, nematodes per 250 cc soil (Root Knot Nematode; [6]): 498.8 per 250 cc soil
- Root Knot, nematodes per gram root (Root Knot Nematode; [6]): 301.3 per gram root
- Root Knot Nematode, nematodes per 250 cc soil (Root Knot Nematode; [7]): 700 per 250 cc soil
- Root Knot, nematodes per gram root (Root Knot Nematode; [7]): 125.6 per gram root
- Root Knot Nematode, nematodes per 250 cc soil (Root Knot Nematode; [8]): 269.8 per 250 cc soil
- Root Knot Nematode, nematodes per 250 cc soil (Root Knot Nematode; [9]): 379.8 per 250 cc soil
- Root Knot, nematodes per gram root (Root Knot Nematode; [9]): 24.4 per gram root
- Number of phylloxera per root piece (phylloxera Biotype A [1]; 1 K CNMA, one value per plant): 133 and 72 and 95
- Number of phylloxera per root piece (phylloxera Biotype A [1]; 20 K (20,000 ppm CNMA in 6% NaHCO3 and 2% Tween-80)): 16
- reduction of population versus control vines (phylloxera Biotype A [1]; 1,000 ppm leaf spray): 92%
- reduction of population versus control vines (phylloxera Biotype A [1]; 10,000 ppm leaf spray): 95%
- phylloxera population, Mean ± 95% CI (phylloxera Biotype A [1]; foliage to runoff, 1000 ppm, Exp. 1): 100 ± 31
- phylloxera population, Mean ± 95% CI (phylloxera Biotype A [1]; foliage to runoff, 1000 ppm, Exp. 2): 58 ± 17
- phylloxera population, Mean ± 95% CI (phylloxera Biotype A [1]; foliage to runoff, 10,000 ppm, Exp. 1): 60 ± 37
- phylloxera population, Mean ± 95% CI (phylloxera Biotype A [1]; foliage to runoff, 10,000 ppm, Exp. 2): 43 ± 56
- Number of phylloxera per root piece (phylloxera Biotype A [2]; 1 K CNMA): 637
- Number of phylloxera per root piece (phylloxera Biotype A [2]; 10 K CNMA): 102
